# Legend:
# [1] = test system: animal model for multiple sclerosis; conditions: cited from earlier work
# [2] = test system: rats with complete spinal cord transection; experiment: Complete transection of the spinal cord with Schwann cell bridge; BBB test of hindlimb locomotion; assay type: in vivo, rat
# Source text: A “BBB Score” is the result of a test developed by Basso, Beattie and Bresnahan as a modifed 21-point open field locomoter scale on which to measure the extent of recovery of motor function in rats with after spinal cord injury. See, e.g, Basso et al., J. Neurotrauma 13(7):343-59 (1996); Beattie et al. (1997), herein incorporated by reference.
# Adult rat spinal cords were completely transected at the T8 cord level and the next caudal segment was removed (Xu et al. (1997), herein incorporated by reference). Schwann cells were purified in culture from adult rat sciatic nerve, suspended in Matrigel: DMEM (30:70), and drawn into 8 mm long polymeric guidance channels at a density of 120×10^6 cells/ml. Xu et al. (1997). Each cut stump was inserted 1 mm into the channel. At the time of transection, a Schwann cell bridge was implanted at the injury site and rolipram was delivered subcutaneously via minipump at 0.07 umol/kg/hour for two weeks as described in Example 3B. As a negative control, animals were delivered saline only. As a positive control, 5 ul of 10 mM dbcAMP was infused in the proximal and distal stump of the lesion in animals. Animals were assessed on a weekly basis for hindlimb locomotion, which is a measure of their motor recovery, using the BBB test.
# [3] = test system: cerebellar neurons on MAG-expressing CHO cells; experiment: Priming of cerebellar neurons with rolipram; neurite outgrowth on MAG-expressing CHO cells; assay type: cell-based, rat; conditions: BDNF 200 ng/ml
# Experimental: Isolated cerebellar neurons in SATO media (prepared as in Example 1) were plated onto poly-L-lysine-coated dishes at 1×10^6 cells/dish. Where indicated, either BDNF at a concentration of 200 ng/ml, or rolipram at a concentration 0.1 uM or 0.25 uM (all from Sigma) was added. After culture for 18 hours (termed priming), neurons were removed with 0.1% trypsin. Trypsinization was stopped by adding 5 ml of DMEM containing 10% FCS. The primed neurons were centrifuged at 800 rpm for 6 min and resuspended in SATO media. The concentration of cells were adjusted to 6×10^4 cells/ml. […] Myelin was prepared as described previously (Cai et al., 1999) from rat CNS white matter. Neurons were cultured overnight before being fixed and immunostained for GAP43 to visualize the neurites. The length of the longest neurite per neuron, from 180-200 neurons, was measured. Results are presented as the average length+/−SEM in micrometers (um). (See, e.g., U.S. Pat. Nos. 5,932,542 and 6,203,792).
# [4] = test system: cerebellar neurons and DRG neurons on MAG-expressing CHO cells; experiment: Subcutaneous rolipram injections into P12 rats; neurite outgrowth of isolated neurons on MAG-expressing CHO cells; assay type: in vivo, rat
# Experimental: In order to determine whether a PDE4 specific inhibitor could be used to prime neurons in vivo and prevent inhibition of neurite outgrowth by myelin and MAG, rolipram was injected subcutaneously into P12 and P30 rats every 3 hours for 24 hours. For all experiments, rolipram was dissolved in DMSO and sterile saline was added to adjust the concentrations. The final volume of the rolipram solution was 0.2 ml for each injection. At each time point, a single rolipram injection was given. Rolipram was injected subcutaneously with insulin syringes (Becton Dickinson 1 ccU-100 insulin Syringe) under the skin of the rat's neck (for all experiments) and in various other regions (only for first experiment using P12 rats). Control animals were injected with a 0.2 ml mixture of DMSO and sterile saline without rolipram, following the same schedule.
# Rolipram was injected subcutaneously into P12 rats at concentrations of 0, 7.5, 20, 25 or 40 nmol/kg every 3 hours for 24 hours before sacrificing. […] Cerebellar neurons were isolated as described in Example 1. Dorsal root ganglia (DRG) neurons were isolated as described previously (De Bellard et al., 1996). Briefly, ganglia were removed from the animals and incubated in 5 ml of SATO media containing 0.025% of trypsin and 0.15% of collagenase type I (Worthington) for 1 hour at 37° C. The ganglia were triturated and trypsinization was stopped by adding 5 ml of DMEM containing 10% FCS. Ganglia were centrifuged at 800 rpm for 6 min, and resuspended in SATO. Neurons were cultured overnight on CHO monolayers as described in Example 1 before being fixed and immunostained for GAP43 to visualize the neurites, as described in Example 1. As a positive control, some neurons from control animals were also cultured overnight in the presence of 1 mM dbcAMP. The length of the longest neurite per neuron, from 180-200 neurons, was measured and results are the average length+/−SEM. Results are expressed as a percentage of growth of the neurons isolated from control animals, treated with saline/DMSO injections and plated on control CHO cells, without dbcAMP or rolipram treatment.
# hippocampal slices = conditions: cited from earlier work
# rats = conditions: cited from earlier work
# [5] = test system: cerebellar neurons on MAG-expressing Chinese hamster ovary (CHO) cells; experiment: Direct treatment of cerebellar neurons with rolipram; neurite outgrowth on MAG-expressing CHO cells; assay type: cell-based, rat
# Experimental: Cerebellar neurons from P5 rats were isolated as described previously (Cai et al., 1999) Briefly, cerebellum was treated with 0.025% of trypsin, triturated and incubated for 10 min at 37° C. Trypsinization was stopped by adding an equal amount of DMEM containing 10% fetal calf serum (FCS). Cells were centrifuged at 800 rpm for 5 min. The cells were resuspended to a single-cell suspension in 2 ml of SATO (see Cai et al., 1999, herein incorporated by reference). The concentration of cells were adjusted to 6×10^4 cells/ml. […] Where indicated, dbcAMP (1 mM) or rolipram (0.1 uM, 0.25 uM, 0.5 uM or 1.0 uM) was added to the media. After 18 hours of culture, neurons were fixed and immunostained with a rabbit polyclonal antibody against […] (GAP43) to visualize the neurites. The length of the longest neurite of the first two hundred GAP43-positive neurons was determined using the Simple 32™ software (see Cai et al., 1999). The mean length of a neurite was determined and presented as the average length+/−SEM in micrometers (um). Results are expressed as a percentage of neurite length from neurons grown in the absence of dbcAMP or rolipram.
compound,measurement,setting,value
COc1ccc(C2CNC(=O)C2)cc1OC1CCCC1 (stereo not shown) [rolipram],anti-inflammatory effect,[1],demonstrated
same,BBB score (motor recovery),"[2]; adult rats, complete transection at T8, Schwann cell bridge, minipump s.c. 0.07 umol/kg/hour for two weeks, vs saline",significantly increases
same,BBB score compared with administration of dbcAMP,"[2]; rolipram 0.07 umol/kg/hour s.c., dbcAMP 5 ul of 10 mM infused in the stumps",essentially the same result
same,"blocking inhibition of axonal outgrowth by MAG after priming, compared with BDNF priming","[3]; priming 18 hours with rolipram 0.25 uM, FIG. 2",almost as effective as priming cerebellar neurons with BDNF
same,"length of neurites on monolayer of CHO cells expressing MAG, as % of length of neurons treated with BDNF",[3]; priming with rolipram 0.25 uM,95%
same,subsequent inhibition of neuronal growth by MAG,"[4]; P12 rats, 7.5 nmol/kg s.c. every 3 hours for 24 hours",effectively blocks
same,inhibition of neuronal growth by MAG,"[4]; P12 rats, 25 nmol/kg s.c. every 3 hours for 24 hours",essentially completely blocked
same,most effective subcutaneous dose for relieving MAG inhibition,"[4]; P12 rats, s.c. every 3 hours for 24 hours",20 nmol/kg
same,neurite length on control CHO cells,"[4]; P12 rats, s.c. injections for 24 hours, control cells not expressing MAG",did not affect neurite length
same,crossing of the blood brain barrier,[4]; inferred from effect on cerebellar (CNS) and DRG neurons after s.c. administration,crossed the blood brain barrier
same,basal cAMP levels,hippocampal slices; 1.0-3.0 umol/kg,Increased basal cAMP levels
same,basal cAMP levels in hippocampal slices,hippocampal slices; up to 0.3 umol/kg,did not raise basal cAMP levels
same,concentrations at which sedative effects were demonstrated,rats,5 to 10 µmol/kg
same,inhibition of axonal outgrowth by MAG,"[5]; rolipram 0.25 uM-1.0 uM in media, 18 hours culture, P5 rat cerebellar neurons, FIG. 1",partially blocks
same,efficiency of blocking the inhibition of axonal outgrowth by MAG compared to dibutyryl-cAMP,"[5]; rolipram 0.5 uM, comparator dbcAMP 1 mM",80%
same,dose dependence of the effect on MAG inhibition of axonal outgrowth,[5]; rolipram 0.1-1.0 uM,dose-dependent

# From patent US20030229134A1, “Methods for stimulating nervous system regeneration and repair by inhibiting phosphodiesterase type 4” (priority 2000, published 2003)
